Patent publication US20240252488A1 (KOREA RESEARCH INSTITUTE OF CHEMICAL TECHNOLOGY, priority 2020, published 2024)

What was measured:
MLKL [1] = biological target: T1, MLKL (Homo sapiens, UniProt Q8NB16); assay: Measurement of binding affinity with MLKL receptor (competitive binding assay, Kd); parameters: made in house; host or cells: HEK 293 cell line (T7 phage in E. coli BL21-derived host is also described)
T1 sequence (Q8NB16 1-471): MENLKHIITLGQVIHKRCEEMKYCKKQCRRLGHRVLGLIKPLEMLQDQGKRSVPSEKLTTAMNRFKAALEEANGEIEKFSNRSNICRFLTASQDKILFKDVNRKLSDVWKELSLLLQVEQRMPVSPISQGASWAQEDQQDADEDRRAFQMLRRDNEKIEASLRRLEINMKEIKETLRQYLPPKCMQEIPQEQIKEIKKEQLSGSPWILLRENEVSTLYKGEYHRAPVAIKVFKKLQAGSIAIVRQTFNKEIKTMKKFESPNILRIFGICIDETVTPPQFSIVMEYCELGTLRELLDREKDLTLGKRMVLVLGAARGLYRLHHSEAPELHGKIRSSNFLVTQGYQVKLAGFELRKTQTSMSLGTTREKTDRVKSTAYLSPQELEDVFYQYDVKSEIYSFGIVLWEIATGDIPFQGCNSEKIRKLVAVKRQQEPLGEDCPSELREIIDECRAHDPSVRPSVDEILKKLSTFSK
How it was run: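 Competitive displacement of MLKL, expressed in HEK 293 cells and DNA-tagged for qPCR, from immobilized ligand on biotin-blocked beads. Compounds were added from 111× DMSO stocks (final DMSO 0.9%). Kinase left in the eluates was quantified by qPCR to give Kd.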

FADD−/− Jurkat cells = assay: Necroptosis inhibition assay, TNF-α-induced necroptosis (CellTiter-Glo 2.0); assay type: cell-based, human; details: TNF-α 15 ng/mL; for Necroptosis inhibition assay (Rescue %) 1 μM: compound 1 μM; for Necroptosis inhibition assay (Rescue %) 10 μM: compound 10 μM
How it was run: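 Cells at 5.0×10^5 cells/mL were pretreated with compound (final 0.1, 1 and 10 μM) for 30 minutes at room temperature, then given TNF-α at 15 ng/mL final. After 20 to 24 hours at 37° C, 5% CO2, viability was read as ATP luminescence to calculate cytotoxicity and necroptosis inhibition rate.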

MLKL [2] = biological target: T1, MLKL; assay: MLKL degradation assay in HepG2 cell line (western blot); assay type: cell-based; parameters: endogenous in cells; host or cells: HepG2 or HaCaT; details: cell line not given; for Degradation assay (Degradation %) 1 μM: compound 1 μM; for Degradation assay (Degradation %) 10 μM: compound 10 μM
How it was run: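 HepG2 cells were exposed to compound at a final 1 or 10 μM for 20-24 hours at 37 °C, 5% CO2. RIPA lysates were normalized by BCA assay, 10-15 μg protein resolved by SDS-PAGE, and MLKL levels detected by western blot with chemiluminescence.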

Kd (MLKL [1]) [nM] | Degradation assay (Degradation %) 1 μM (MLKL [2]) [%] | Degradation assay (Degradation %) 10 μM (MLKL [2]) [%] | SMILES | Necroptosis inhibition assay (Rescue %) 1 μM (FADD−/− Jurkat cells) [%] | Necroptosis inhibition assay (Rescue %) 10 μM (FADD−/− Jurkat cells) [%] | Necroptosis inhibition assay (Rescue %) 1 μM (FADD−/− Jurkat cells; FADD−/− Jurkat cells) [%] | Necroptosis inhibition assay (Rescue %) 10 μM (FADD−/− Jurkat cells; FADD−/− Jurkat cells) [%]
2.8 | 54.49 | 54.94 | Nc1ncc(-c2cnn(C3CCN(CC4CCN(C(=O)CNc5ccc6c(c5)C(=O)N(C5CCC(=O)NC5=O)C6=O)CC4)CC3)c2)nc1C(=O)O[C@@H](C(=O)Nc1ccc(F)cc1)c1ccccc1 (stereo partly drawn) [TDH-137, (R)-2-((4-fluorophenyl)amino)-2-oxo-1-phenylethyl 3-amino-6-(1-(1-((1-((2-(2,6-dioxopiperidin-3-yl)-1,3-dioxoisoindolin-5-yl)glycyl)piperidin-4-yl)methyl)piperidin-4-yl)-1H-pyrazol-4-yl)pyrazine-2-carboxylate] | 76.05 | 63.68 |  | 
1 | 74.03 | 60.19 | Nc1ncc(-c2cnn(C3CCN(CCC4CCN(C(=O)COc5cccc6c5C(=O)N(C5CCC(=O)NC5=O)C6=O)CC4)CC3)c2)nc1C(=O)O[C@@H](C(=O)Nc1ccc(F)cc1)c1ccccc1 (stereo partly drawn) [TDH-200, (R)-2-((4-fluorophenyl)amino)-2-oxo-1-phenylethyl 3-amino-6-(1-(1-(2-(1-(2-((2-(2,6-dioxopiperidin-3-yl)-1,3-dioxoisoindolin-4-yl)oxy)acetyl)piperidin-4-yl)ethyl)piperidin-4-yl)-1H-pyrazol-4-yl)pyrazine-2-carboxylate] | 76.41 | 44.64 |  | 
5.2 | 9.84 | 46.89 | Nc1ncc(-c2cnn(C3CCN(CCOCCOCCNC(=O)C4CCN(c5cccc6c5C(=O)N(C5CCC(=O)NC5=O)C6=O)CC4)CC3)c2)nc1C(=O)O[C@@H](C(=O)Nc1ccc(F)cc1)c1ccccc1 (stereo partly drawn) [TDH-110, (R)-2-((4-fluorophenyl)amino)-2-oxo-1-phenylethyl 3-amino-6-(1-(1-(2-(2-(2-(1-(2-(2,6-dioxopiperidin-3-yl)-1,3-dioxoisoindolin-4-yl)piperidine-4-carboxamido)ethoxy)ethoxy)ethyl)piperidin-4-yl)-1H-pyrazol-4-yl)pyrazine-2-carboxylate] | 55.93 | 72.8 |  | 
9.5 | 31.35 | 63.85 | Nc1ncc(-c2cnn(C3CCN(CCOCCOCCOCCNC(=O)COc4cccc5c4C(=O)N(C4CCC(=O)NC4=O)C5=O)CC3)c2)nc1C(=O)O[C@@H](C(=O)Nc1ccc(F)cc1)c1ccccc1 (stereo partly drawn) [TDH-155, (R)-2-((4-fluorophenyl)amino)-2-oxo-1-phenylethyl 3-amino-6-(1-(1-(1-((2-(2,6-dioxopiperidin-3-yl)-1,3-dioxoisoindolin-4-yl)oxy)-2-oxo-6,9,12-trioxa-3-azatetradecan-14-yl)piperidin-4-yl)-1H-pyrazol-4-yl)pyrazine-2-carboxylate] | 31.1 | 64.6 |  | 
7.2 | 79.84 | 89.54 | Nc1ncc(-c2cnn(C3CN(CC4CCN(C(=O)COc5ccc6c(c5)C(=O)N(C5CCC(=O)NC5=O)C6=O)CC4)C3)c2)nc1C(=O)OC(C(=O)Nc1ccc(F)cc1)c1ccccc1 (stereo not shown) [TDH-299, 2-((4-fluorophenyl)amino)-2-oxo-1-phenylethyl 3-amino-6-(1-(1-((1-(2-((2-(2,6-dioxopiperidin-3-yl)-1,3-dioxoisoindolin-5-yl)oxy)acetyl)piperidin-4-yl)methyl)azetidin-3-yl)-1H-pyrazol-4-yl)pyrazine-2-carboxylate] | 75.61 | 62.7 |  | 
2.1 | 65.39 | 53.78 | Nc1ncc(-c2cnn(C3CCN(CCC4CCN(c5cccc6c5C(=O)N(C5CCC(=O)NC5=O)C6=O)CC4)CC3)c2)nc1C(=O)O[C@@H](C(=O)Nc1ccc(F)cc1)c1ccccc1 (stereo partly drawn) [TDH-202, (R)-2-((4-fluorophenyl)amino)-2-oxo-1-phenylethyl 3-amino-6-(1-(1-(2-(1-(2-(2,6-dioxopiperidin-3-yl)-1,3-dioxoisoindolin-4-yl)piperidin-4-yl)ethyl)piperidin-4-yl)-1H-pyrazol-4-yl)pyrazine-2-carboxylate] | 60.16 | 29.13 |  | 

The next lines start with the compound.

SMILES | Kd (MLKL [1]) [nM] | Degradation assay (Degradation %) 1 μM (MLKL [2]) [%] | Degradation assay (Degradation %) 10 μM (MLKL [2]) [%] | Necroptosis inhibition assay (Rescue %) 1 μM (FADD−/− Jurkat cells) [%] | Necroptosis inhibition assay (Rescue %) 10 μM (FADD−/− Jurkat cells) [%] | Necroptosis inhibition assay (Rescue %) 1 μM (FADD−/− Jurkat cells; FADD−/− Jurkat cells) [%] | Necroptosis inhibition assay (Rescue %) 10 μM (FADD−/− Jurkat cells; FADD−/− Jurkat cells) [%]
Nc1ncc(-c2cnn(C3CCN(C(=O)CCC4CCN(C(=O)CNc5ccc6nnn(C7CCC(=O)NC7=O)c(=O)c6c5)CC4)CC3)c2)nc1C(=O)O[C@@H](C(=O)Nc1ccc(F)cc1)c1ccccc1 (stereo partly drawn) [TDH-434, (R)-2-((4-fluorophenyl)amino)-2-oxo-1-phenylethyl 3-amino-6-(1-(1-(3-(1-((3-(2,6-dioxopiperidin-3-yl)-4-oxo-3,4-dihydrobenzo[d][1,2,3]triazin-6-yl)glycyl)piperidin-4-yl)propanoyl)piperidin-4-yl)-1H-pyrazol-4-yl)pyrazine-2-carboxylate] | 1.4 | 85.08 | 74.66 |  |  | 28.72 | 20.87
Nc1ncc(-c2cnn(C3CCN(CCOCCOCCOCCNC(=O)C4CCN(c5cccc6c5C(=O)N(C5CCC(=O)NC5=O)C6=O)CC4)CC3)c2)nc1C(=O)O[C@@H](C(=O)Nc1ccc(F)cc1)c1ccccc1 (stereo partly drawn) [TDH-139, (R)-2-((4-fluorophenyl)amino)-2-oxo-1-phenylethyl 3-amino-6-(1-(1-(1-(1-(2-(2,6-dioxopiperidin-3-yl)-1,3-dioxoisoindolin-4-yl)piperidin-4-yl)-1-oxo-5,8,11-trioxa-2-azatridecan-13-yl)piperidin-4-yl)-1H-pyrazol-4-yl)pyrazine-2-carboxylate] | 4.9 |  | 78.56 | 18.11 | 61.89 |  | 
Nc1ncc(-c2cnn(C3CCN(CCOCCOCCOCCNC(=O)COc4ccc5c(c4)C(=O)N(C4CCC(=O)NC4=O)C5=O)CC3)c2)nc1C(=O)O[C@@H](C(=O)Nc1ccc(F)cc1)c1ccccc1 (stereo partly drawn) [TDH-166, (R)-2-((4-fluorophenyl)amino)-2-oxo-1-phenylethyl 3-amino-6-(1-(1-(1-((2-(2,6-dioxopiperidin-3-yl)-1,3-dioxoisoindolin-5-yl)oxy)-2-oxo-6,9,12-trioxa-3-azatetradecan-14-yl)piperidin-4-yl)-1H-pyrazol-4-yl)pyrazine-2-carboxylate] | 3.4 | 18.17 | 60.05 | 27.44 | 65.57 |  | 
COc1ccc(C(=O)NCC2CCC(CN3CCC(n4cc(-c5cnc(N)c(C(=O)O[C@@H](C(=O)Nc6ccc(F)cc6)c6ccccc6)n5)cn4)CC3)CC2)cc1N1CCC(=O)NC1=O (stereo partly drawn) [TDH-497, (R)-2-((4-fluorophenyl)amino)-2-oxo-1-phenylethyl 3-amino-6-(1-(1-(((1r,4r)-4-((3-(2,4-dioxotetrahydropyrimidin-1(2H)-yl)-4-methoxybenzamido)methyl)cyclohexyl)methyl)piperidin-4-yl)-1H-pyrazol-4-yl)pyrazine-2-carboxylate] | 0.61 | 73.89 | 57.10 |  |  | 13.48 | −1.14
